Reference: patent US20240180900A1, “COMPOUNDS AND METHODS FOR THE TARGETED DEGRADATION OF ANDROGEN RECEPTOR” (Arvinas Operations, Inc., priority 2022, published 2024)
“And” between values parts separate entries of the source, which are not always exact repeats. Equal values may be shown once. Read-outs that look alike come from different tables or passages of the source.

What was measured:
AR WT = target: T1, AR WT (Homo sapiens, UniProt P10275); experiment: AR degradation in T-Rex-293 cell line, wild-type AR; assay type: cell-based; details: T-Rex-293, ELISA
T1 construct: expressed in transfected cells; host or cells: T-REx-293
T1 sequence (P10275 whole entry): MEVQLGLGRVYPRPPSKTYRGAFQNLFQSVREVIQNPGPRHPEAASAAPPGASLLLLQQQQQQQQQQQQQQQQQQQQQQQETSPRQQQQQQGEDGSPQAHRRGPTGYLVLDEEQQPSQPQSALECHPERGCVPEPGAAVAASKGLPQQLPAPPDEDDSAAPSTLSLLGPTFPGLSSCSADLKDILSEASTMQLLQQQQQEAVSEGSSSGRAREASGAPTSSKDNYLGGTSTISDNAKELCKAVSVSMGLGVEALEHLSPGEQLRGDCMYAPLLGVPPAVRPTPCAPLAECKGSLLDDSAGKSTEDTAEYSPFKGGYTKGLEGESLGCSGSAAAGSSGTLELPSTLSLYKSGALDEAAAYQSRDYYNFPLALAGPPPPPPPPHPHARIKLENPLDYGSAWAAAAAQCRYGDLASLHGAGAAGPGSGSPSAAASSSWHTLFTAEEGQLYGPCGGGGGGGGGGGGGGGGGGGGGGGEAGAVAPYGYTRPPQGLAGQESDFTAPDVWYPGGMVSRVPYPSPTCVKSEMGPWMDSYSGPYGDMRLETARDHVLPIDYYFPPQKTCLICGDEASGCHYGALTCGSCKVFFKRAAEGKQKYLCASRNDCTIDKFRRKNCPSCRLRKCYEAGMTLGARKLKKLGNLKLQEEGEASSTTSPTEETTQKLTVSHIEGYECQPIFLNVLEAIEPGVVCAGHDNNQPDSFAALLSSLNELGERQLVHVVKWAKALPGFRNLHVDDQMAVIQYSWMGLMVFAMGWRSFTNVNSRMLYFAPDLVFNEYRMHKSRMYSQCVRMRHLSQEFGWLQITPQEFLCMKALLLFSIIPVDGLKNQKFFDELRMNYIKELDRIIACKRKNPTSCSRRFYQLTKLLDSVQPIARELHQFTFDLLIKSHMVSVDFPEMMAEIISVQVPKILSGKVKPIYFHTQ
Procedure: FIG. 3 is a graph showing Compound A's ability to degrade clinically relevant mutated forms AR.
Plasmids expressing AR WT or the indicated AR mutants were stably transfected into HEK293 cells. Each cell line was treated with indicated concentrations of Compound A for 24 hours. AR levels were determined by AR ELISA without background subtraction. […]
To assess the ability of Compound A to degrade variants of the AR, vectors expressing wild-type AR or mutant AR proteins harboring clinically observed mutations in the ligand binding domain (13 with single amino acid changes or 4 with 2 amino acid changes) (Azad A. A., Volik S. V., Wyatt A. W., et al. Androgen receptor gene aberrations in circulating cell-free DNA: biomarkers of therapeutic resistance in castration-resistant prostate cancer. Clin Cancer Res. 2015; 21:2315-2324; Robinson D., Van Allen E. M., Wu Y. M., et al. Integrative clinical genomics of advanced prostate cancer. Cell. 2015; 161:1215-1228; Ledet E. M., Lilly M. B., Sonpavde G., et al. Comprehensive analysis of AR alterations in circulating tumor DNA from patients with advanced prostate cancer. Oncologist.

[1] = system: GSPT1, Aiolos, Ikaros, CK1α, and SALL4; experiment: cereblon neomorphic substrate degradation in Ramos and SK-N-DZ cells; assay type: cell-based; details: 1 μM
[2] = food/PPI effect on single-dose PK in healthy volunteers (phase 1); assay type: in vivo, human; details: for CL/F: read-out: CL/F_Obs, Geometric Mean (Geometric CV %) (converted); for Vd/F: read-out: Vz/F, Geometric Mean (Geometric CV %)
Procedure: The primary endpoints were AUCinf and Cmax. Additional parameters measured included AUClast and Tmax.
This phase 1, open-label study included a crossover, fed/fasted cohort and a fixed-sequence PPI cohort. For the fed/fasted cohort, healthy male volunteers received a single oral dose of Compound A 200 mg in a fasted state during treatment A and in a fed state, following a high-calorie/high-fat meal, during treatment B. Participants were randomized to a dosing sequence of treatments AB or BA. For the PPI cohort, a single oral dose of Compound A 300 mg was administered alone in a fed state during treatment C, and during treatment D, participants received esomeprazole 40 mg for 5 days prior to a single oral dose of Compound A 300 mg on day 5 in a fed state. Participants were assigned to a fixed-dosing sequence of treatments CD. There was a 24-day washout period between Compound A treatments. PK blood samples were collected predose and at selected times up to 312 hours post-Compound A dose. Primary endpoints were area under the plasma concentration-time curve from the time of dosing extrapolated to infinity (AUCinf) and maximum plasma concentration (Cmax) of Compound A. Secondary endpoints included additional PK parameters and safety and tolerability.
The effect of food and a PPI on the PK of Compound A was evaluated in healthy participants. PK results are presented in Tables 2 and 3 and are summarized here.

PSA = experiment: Phase 1/2 trial in mCRPC: PSA response; assay type: in vivo, human
Procedure: Evaluable analysis set include all Compound A treated participants with baseline PSA assessment and at least a C1D28 or later postbaseline PSA assessment. A PSA90 and PSA50 and PSA30 response is defined as a =90% or 50% or 30% decline in PSA from baseline PSA value, respectively.
Patients in the Phase 1 studies were administered from 40 mg to 500 mg Compound A once daily. Patients in the Phase 2 studies were administered 100 mg or 300 mg Compound A once daily.
In the Phase 1 and interim Phase 2 trial, AR LBD mutations were present in 28% (13 of 47) of patients' tumors. […] (FIG. 7; AR: androgen receptor; LBD: ligand-binding domain; PSA: prostate-specific antigen; PSA30: best PSA declines ≥30%; PSA50: best PSA declines ≥50%; H875: H875Y; T878: T878A or T878S.)
Evaluable analysis set include all Compound A treated participants with baseline PSA assessment and at least a C1D28 or later postbaseline PSA assessment. A PSA90 and PSA50 and PSA30 response is defined as =90% or 50% or 30% decline in PSA from baseline PSA value.

[3] = 200 mg, fed (test) vs fasted (reference)
[4] = 300 mg, fed, esomeprazole 40 mg
[5] = male, human, plasma, oral, 40 mg Esomeprazole + 300 mg
[6] = male, human, plasma, oral, 200 mg, Fasted
[7] = male, human, plasma, oral, 200 mg, Fed
[8] = male, human, plasma, oral, 300 mg, 300 mg Alone

For `COc1cc(O[C@H]2C(C)(C)[C@H](NC(=O)c3ccc(N4CCC(CN5CCN(c6ccc(C(=O)N[C@H]7CCC(=O)NC7=O)c(F)c6)CC5)CC4)cc3)C2(C)C)ccc1C#N` [Compound A, 4-(4-((1-(4-(((1R,3R)-3-(4-cyano-3-methoxyphenoxy)-2,2,4,4-tetramethylcyclobutyl)carbamoyl)phenyl)piperidin-4-yl)methyl)piperazin-1-yl)-N—((S)-2,6-dioxopiperidin-3-yl)-2-fluorobenzamide], the DC50 (AR WT) was 1.5 nM, the “degradation of GSPT1, Aiolos, Ikaros, CK1α, and SALL4” value [1] was “did not lead to degradation” and the “delay of median Tmax, fed vs fasted” value ([2]; 200 mg single oral dose) was “≈ 4 hours”. For the same compound, the “AUCinf Geometric LS Mean Ratio (fed/fasted), relative bioavailability” value [2, 3] was 306.34% and 306.3%, the “AUClast Geometric LS Mean Ratio (fed/fasted), relative bioavailability” value [2, 3] was 313.03% and 313.0% and the “Cmax Geometric LS Mean Ratio (fed/fasted), relative bioavailability” value [2, 3] was 394.46% and 394.5%. For the same compound, the “AUCinf Geometric LS Mean Ratio (with esomeprazole/alone)” value ([2]; 300 mg, fed) was 89.2%, the “AUClast Geometric LS Mean Ratio (with esomeprazole/alone)” value ([2]; 300 mg, fed) was 88.1% and the “Cmax Geometric LS Mean Ratio (with esomeprazole/alone)” value ([2]; 300 mg, fed) was 80.16% and 80.2%. For the same compound, the “reduction in AUCinf with esomeprazole vs Compound A alone” value [2, 4] was roughly 11%, the “reduction in Cmax with esomeprazole vs Compound A alone” value [2, 4] was “≈ 20% and ~20%” and the “effect of esomeprazole on Compound A exposure” value ([2]; 300 mg, moderate-fat fed conditions) was “small effect, but not clinically significant”. The “increase of extent of systemic exposure (AUCinf), fed vs fasted” value ([2]; high fat meal vs fasted, humans) was 3.1 fold and ~3 fold, the AUC(0-inf) ([2]; male, human, plasma, oral, 40 mg Esomeprazole + 300 mg, read-out: AUCinf-Obs, Geometric Mean (Geometric CV %)) was 9720 ng·h/mL and the AUC(0-t) ([2]; male, human, plasma, oral, 40 mg Esomeprazole + 300 mg, read-out: AUClast, Geometric Mean (Geometric CV %)) was 9370 ng·h/mL. For the same compound, the CL/F [2, 5] was 515 mL/min, the Cmax ([2]; male, human, plasma, oral, 40 mg Esomeprazole + 300 mg, read-out: Cmax, Geometric Mean (Geometric CV %)) was 117 ng/mL and the half-life ([2]; male, human, plasma, oral, 40 mg Esomeprazole + 300 mg, read-out: T1/2, Geometric Mean (Geometric CV %) (converted)) was 65.5 h. It also gave a Tmax ([2]; male, human, plasma, oral, 40 mg Esomeprazole + 300 mg, read-out: Tmax) of 10 h, a Vd/F [2, 5] of 2920 L and an AUC(0-inf) ([2]; male, human, plasma, oral, 200 mg, 200 mg alone, fasted, read-out: AUCinf, Geometric LS Mean) of 3460 ng·h/mL. For the same compound, the AUC(0-t) ([2]; male, human, plasma, oral, 200 mg, 200 mg alone, fasted, read-out: AUClast, Geometric LS Mean) was 3300 ng·h/mL, the Cmax ([2]; male, human, plasma, oral, 200 mg, 200 mg alone, fasted, read-out: Cmax, Geometric LS Mean) was 36 ng/mL and the AUC(0-inf) ([2]; male, human, plasma, oral, 200 mg, 200 mg alone, fed, read-out: AUCinf, Geometric LS Mean) was 10600 ng·h/mL. For the same compound, the AUC(0-t) ([2]; male, human, plasma, oral, 200 mg, 200 mg alone, fed, read-out: AUClast, Geometric LS Mean) was 10300 ng·h/mL, the Cmax ([2]; male, human, plasma, oral, 200 mg, 200 mg alone, fed, read-out: Cmax, Geometric LS Mean) was 142 ng/mL and the AUC(0-inf) ([2]; male, human, plasma, oral, 200 mg, Fasted, read-out: AUCinf-Obs, Geometric Mean (Geometric CV %)) was 3460 ng·h/mL. It also gave an AUC(0-t) ([2]; male, human, plasma, oral, 200 mg, Fasted, read-out: AUClast, Geometric Mean (Geometric CV %)) of 3300 ng·h/mL, a CL/F [2, 6] of 964 mL/min and a Cmax ([2]; male, human, plasma, oral, 200 mg, Fasted, read-out: Cmax, Geometric Mean (Geometric CV %)) of 36.1 ng/mL. The half-life ([2]; male, human, plasma, oral, 200 mg, Fasted, read-out: T1/2, Geometric Mean (Geometric CV %) (converted)) was 65.3 h, the Tmax ([2]; male, human, plasma, oral, 200 mg, Fasted, read-out: Tmax) was 7.75 h and the Vd/F [2, 6] was 5450 L. It also gave an AUC(0-inf) ([2]; male, human, plasma, oral, 200 mg, Fed, read-out: AUCinf-Obs, Geometric Mean (Geometric CV %)) of 10600 ng·h/mL, an AUC(0-t) ([2]; male, human, plasma, oral, 200 mg, Fed, read-out: AUClast, Geometric Mean (Geometric CV %)) of 10300 ng·h/mL and a CL/F [2, 7] of 315 mL/min. For the same compound, the Cmax ([2]; male, human, plasma, oral, 200 mg, Fed, read-out: Cmax, Geometric Mean (Geometric CV %)) was 142 ng/mL, the half-life ([2]; male, human, plasma, oral, 200 mg, Fed, read-out: T1/2, Geometric Mean (Geometric CV %) (converted)) was 58.7 h and the Tmax ([2]; male, human, plasma, oral, 200 mg, Fed, read-out: Tmax) was 12 h. For the same compound, the Vd/F [2, 7] was 1600 L, the AUC(0-inf) ([2]; male, human, plasma, oral, 200 mg, fasted, read-out: AUCinf) was 3460 ng·h/mL and the AUC(0-inf) ([2]; male, human, plasma, oral, 200 mg, fed (high-fat meal), read-out: AUCinf) was 10600 ng·h/mL. It also gave a half-life ([2]; male, human, plasma, oral, 200 mg, under both fed and fasted conditions, read-out: mean T1/2) of 60 to 76 h, a Tmax ([2]; male, human, plasma, oral, 300 mg with esomeprazole 40 mg, fed, read-out: median Tmax) of 10 h and an AUC(0-inf) ([2]; male, human, plasma, oral, 300 mg, 300 mg Alone, read-out: AUCinf-Obs, Geometric Mean (Geometric CV %)) of 10900 ng·h/mL. The AUC(0-t) ([2]; male, human, plasma, oral, 300 mg, 300 mg Alone, read-out: AUClast, Geometric Mean (Geometric CV %)) was 10600 ng·h/mL, the CL/F [2, 8] was 459 mL/min and the Cmax ([2]; male, human, plasma, oral, 300 mg, 300 mg Alone, read-out: Cmax, Geometric Mean (Geometric CV %)) was 146 ng/mL. It also gave a half-life ([2]; male, human, plasma, oral, 300 mg, 300 mg Alone, read-out: T1/2, Geometric Mean (Geometric CV %) (converted)) of 58.4 h, a Tmax ([2]; male, human, plasma, oral, 300 mg, 300 mg Alone, read-out: Tmax) of 7 h and a Vd/F [2, 8] of 2320 L. The AUC(0-inf) ([2]; male, human, plasma, oral, 300 mg, 300 mg alone, fed, read-out: AUCinf, Geometric LS Mean) was 10900 ng·h/mL, the AUC(0-t) ([2]; male, human, plasma, oral, 300 mg, 300 mg alone, fed, read-out: AUClast, Geometric LS Mean) was 10600 ng·h/mL and the Cmax ([2]; male, human, plasma, oral, 300 mg, 300 mg alone, fed, read-out: Cmax, Geometric LS Mean) was 146 ng/mL. It also gave a Tmax ([2]; male, human, plasma, oral, 300 mg, 300 mg alone, fed, read-out: median Tmax) of 7 h, an AUC(0-inf) ([2]; male, human, plasma, oral, 300 mg, 300 mg with esomeprazole, fed, read-out: AUCinf, Geometric LS Mean) of 9720 ng·h/mL and an AUC(0-t) ([2]; male, human, plasma, oral, 300 mg, 300 mg with esomeprazole, fed, read-out: AUClast, Geometric LS Mean) of 9370 ng·h/mL. It also gave a Cmax ([2]; male, human, plasma, oral, 300 mg, 300 mg with esomeprazole, fed, read-out: Cmax, Geometric LS Mean) of 117 ng/mL, a delay of median Tmax with esomeprazole ([2]; male, human, plasma, oral, 300 mg, fed) of 3 h and a Tmax ([2]; male, human, plasma, po, 200 mg, 200 mg single oral dose, fasted, read-out: median Tmax) of 7.75 h. For the same compound, the Tmax ([2]; male, human, plasma, po, 200 mg, 200 mg single oral dose, fed (high-fat meal), read-out: median Tmax) was 12 h, the “PSA decline in patient with mCRPC with wild-type AR” value (PSA; FIG. 14) was “Deep PSA decline” and the “patients with AR LBD mutations achieving PSA50” value (PSA; Phase 1 and interim Phase 2) was 42%. The “patients with AR LBD mutations achieving PSA50” value (PSA; as the trial progressed, 7 of 17) was 41%.
